# Measured values: patent publication US20250052765A1, “Nanobody Discovery Platform and Related Methods” (Carnegie Mellon University, priority 2021, published 2025)
# Columns and labels:
# [1] = tested on: NB/TPD complexes
# Method: Green numbers are NB-gFAP signal; red numbers are TPD-rFAP signals. In vivo, cells treated with 300 nM TD during 3-day cell culture; in vitro, cells treated with TD after harvest in assay buffer for 4 hours.
# The green emitting fluorogen activating protein (gFAP) is genetically fused using GG assembly 3′ to each NB (NB-gFAP) where the gFAP may be ScFvl or AM2-2; the red emitting FAP (rFAP) is fused 3′ to each TPD (TPD-rFAP) where the rFAP is dL5. […] If co-expressed NB and TPD specifically bind one another, the TPD-rFAP will be captured on the surface of the co-expressing cell. However, its residence will be finite as determined by the binding affinity of the NB/TPD complex; most of the TPD-rFAP will be lost into the medium over the 3 day period of cell culture. […] This enables quantitative self-reporting of the presence of the NB/TPD complex as a ratio of red to green fluorescence. FACS will then be used to isolate cells displaying the complex.
# The secreted ectodomain TPD-rFAP fusions are initially sequestered within the yeast periplasmic space and/or inner cell wall, and upon buffer treatment released to outer cell surface over the course of a few hours (FIG. 22). […] A second feature of TDs is that they can be successfully applied to cells post-harvest instead of the usual inclusion of TDs in growth medium for 3 days.
# [2] = tested on: LaG18/GFP strain; conditions: 300 nM TD during cell culture; bleached for 90 sec at 525 nm
# Method: Flow cytometer histograms of LaG18/GFP strain labeled during cell culture with 300 nM TD. Mean values are shown; unbleached (red), bleached for 90 sec at 525 nm (blue), and unlabeled control cells (orange).
substance,measurement,setting,value
sulfonate TO1-PEG3500-MG,binding affinities of NB/TPD complexes efficiently locked/captured on the yeast cell surface,[1],≤ 20 µM
same,loss of rFAP/MG (TPD) signal after bleaching TO1 end of TD,[2],about half of the rFAP/MG signal is lost
